Assay results as given in patent US20260109712A1, “RIFAMYCINS FOR NONTUBERCULOUS MYCOBACTERIA” (priority 2022, published 2026).
In brackets after ≈: the same amount, converted by molar mass. Like-named read-outs stand apart in the source and are kept apart here.

Key:
[1] = test system: M. abscessus ATCC 19977; test: MIC assay in 96-well plate format, wild-type strain; assay type: cell-based, Mycobacterium abscessus; details: for MICWT: Table 10
Procedure, shortened: (§1)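 Two-fold, ten-point dilutions in 7H9 with 2% DMSO; mid-log culture diluted to OD600=0.1 (1×10^7 CFU/mL). Incubated 3 days at 37 °C, shaking 110 RPM; growth = Day 3 minus Day 0 OD600, expressed as percentage of drug-free growth and plotted against concentration. Two biological replicates.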

[2] = test system: Δarr M. abscessus; test: MIC assay, isogenic arr-deleted strain; assay type: cell-based, Mycobacterium abscessus; details: for Δarr Mab MIC: arr-deleted strain, 90% growth inhibition; for MICΔorr: Table 10
Procedure, shortened: as §1

[3] = test system: M. abscessus Bamboo; test: MIC assay, clinical isolate Bamboo; assay type: cell-based, Mycobacterium abscessus
[4] = test system: M. abscessus Bamboo; test: Broth MBC90 (bMBC90); assay type: cell-based, Mycobacterium abscessus
From the text: Broth MIC, broth MBC90 (bMBC90), and caseum surrogate MBC90 ([…]) of clinically used antibiotics and of novel ADP-ribosylation-resistant rifabutin analogs against M. abscessus Bamboo have been evaluated.

[5] = test system: M. abscessus Bamboo; test: Caseum surrogate MBC90 (cMBC90) kill assay; assay type: cell-based, Mycobacterium abscessus; details: for MBC: read-out: cMBC90
From the text: (§2) The surrogate matrix was generated as described previously from cultured THP-1 cells (ATCC TIB-202) (mBio, 2023, 14, e0059823). M. abscessus exponential cultures grown in Middlebrook 7H9 broth (Sigma Aldrich) (OD600 0.6-0.9) were spun down and resuspended in water to an OD600 of 7, 0.7, and 0.07. As described for the M. tuberculosis caseum surrogate assay (mnBio, 2023, 14, e0059823), the bacterial suspensions (at three different dilutions resulting in ˜10^9, 10^8, and 10^7 starting CFU/mL, represented by circle, square, and triangle indicators respectively) were added to the caseum surrogate in the ratio 2:1 (vol/wt), briefly homogenized with 1.4-mm zirconia beads, divided evenly into nine 1.5-mL microcentrifuge tubes, and incubated as standing cultures at 37° C. At the indicated time points, tubes were removed and used for CFU enumeration by plating on Middlebrook 7H11 agar (Sigma Aldrich). Separate tubes were used at each time point. To determine the kill curves, cultures with a starting CFU/mL of 10^8 were used (resulting in the middle curve with square indicators). Arrows indicate the time points when drugs were added and the end of the treatment. The experiment was repeated three times independently, yielding similar results. A representative example is shown. Dots and error bars represent means and standard deviations of three technical replicates, respectively.
FIGS. 29A-29M show the Dose-response kill curves against M. abscessus Bamboo in caseum surrogate. M. abscessus cultures were set up as described in the legend of FIG. 28. Bacterial cell suspensions were added to yield a starting CFU of 10^8/mL (FIG. 28, middle growth curve with square indicators). […] The shaded areas indicate drug concentration windows achieved in caseum in vivo. (Antimicrob. Agents Chemother., 2021, 65, e0050621; Antimicrob. Agents Chemother., 2022, 66, e0221221; PLoS Med., 2019, 16, e1002773; ACS Infect. Dis., 2016, 2, 251-267). The experiment was repeated twice independently, yielding similar results. A representative example is shown. Dots and error bars represent means and standard deviations of three technical replicates, respectively. Horizontal dotted lines indicate the cutoff for 1 log reduction in CFU compared to 10-day drug-free control culture. The cMBC90 values shown in Table 16 are the drug concentrations that reduce CFU by 90% relative to the CFU of drug-free controls at day 10. Since the cultures were in the stationary phase on day 5 when drug treatment started, the CFUs of the drug-free cultures at day 10 were similar to the CFUs of the drug-free cultures at day 5 (FIG. 28).
as §2, with “(doi: 10.1128/mbio.00598-23).” for “(mBio, 2023, 14, e0059823).”, “(doi: 10.1128/mbio.00598-23),” for “(mnBio, 2023, 14, e0059823),”, “CFU/mL)” for “CFU/mL, represented by circle, square, and triangle indicators respectively)”, “curves for the drugs,” for “curves,”, “used.” for “used (resulting in the middle curve with square indicators). Arrows indicate the time points when drugs were added and the end of the treatment.”, “results.” for “results. A representative example is shown. Dots and error bars represent means and standard deviations of three technical replicates, respectively.”
The experiment was repeated twice independently, yielding similar results. A representative example is shown. The cMBC90 values shown in Table 16 are the drug concentrations that reduce CFU by 90% relative to the CFU of drug-free controls at day 10. […]

[6] = Mouse pharmacokinetics studies; assay type: in vivo, CD-1 mice; details: for AUCp.o.: po
Method: Blood was captured in CB300 blood collection tubes containing K2EDTA and stored on ice. Plasma was recovered after centrifugation and stored at −80° C. until analyzed by high pressure liquid chromatography coupled to tandem mass spectrometry (LC-MS/MS). Pharmacokinetic parameters were calculated using non-compartmental pharmacokinetic analysis. […] Extracts were vortexed for 5 minutes and centrifuged at 4000 RPM for 5 minutes. 75 μL of supernatant was transferred for LC-MS/MS analysis and diluted with 75 μL of Milli-Q deionized water. Rifabutin was purchased from Carbosynth. C25-desacetyl rifabutin and rifabutin-d7 were purchased from Toronto Research Chemical. Verapamil was purchased from Sigma-Aldrich. […] Multiple-reaction monitoring of parent/daughter transitions in electrospray positive-ionization mode was used to quantify all analytes. […] Data processing was performed using Analyst software (version 1.6.2; Applied Biosystems Sciex).

[7] = Plasma protein binding assay (rapid equilibrium dialysis); assay type: in vitro ADME
Procedure, shortened: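 Rapid equilibrium dialysis ran 4 h at 37° C (300 RPM) with compound-spiked plasma (10,000 ng/mL) on one side and PBS on the other. Each side was then mixed 1:1 […] to equalise matrix before LC-MS/MS quantification.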

[8] = test system: Mycobacterium abscessus; test: MIC against Mycobacterium abscessus (strain not given); assay type: cell-based
[9] = test system: CYP3A4
Method: The threshold cycle (CT) was measured for each isoform cDNA by real time qRT-PCR. The mRNA level of each isoform was assessed by the relative quantifiation with reference gene (GAPDH) as the normalizer method. The normalized fold induction was calculated by 2^−ΔΔCT method, in which 0.1% DMSO was used as the reference (vehicle control). The induction potential of each test compound was analyzed by comparing its fold induction to a pre-determined cutoff value for each lot of hepatocytes. The hepatocytes lots used in this study were validated using 10 known inducers and 5 known non-inducers for each isozyme. A cutoff value is determined based on the validation study for each hepatocytes lot.

[10] = test system: RFB-R1 M. abscessus; test: microbe, parasite or virus in culture; assay type: cell-based, Mycobacterium abscessus; details: Mycobacteroides abscessus, read-out: RFB-R1 M. abscessus MIC
[11] = Mycobacteroides abscessus, broth, M. abscessus Bamboo, Table 16, read-out: MIC
[12] = Mycobacteroides abscessus, 120 h, broth, 5 days
[13] = Mycobacteroides abscessus, 120 h
[14] = Mycobacteroides abscessus, 72 h, Table 22, read-out: MICMab

CO[C@H]1/C=C/O[C@@]2(C)Oc3c(C)c(O)c4c(c3C2=O)C2=NC3(CCN(CC(C)C)CC3)NC2=C(NC(=O)/C(C)=C/C=C/[C@H](C)[C@H](O)[C@@H](C)[C@@H](O)[C@@H](C)[C@H](OC(=O)c2cncnc2)[C@@H]1C)C4=O [5n, 25-O-(5-pyrimidinecarbonyl)-25-O-desacetyrifabutin]
MIC ([1]; M. abscessus ATCC 19977, 90% growth inhibition, read-out: WT Mab MIC): 0.018 µM (≈ 0.0164 µg/mL)
MIC ratio ([1]; WT MIC/Δarr strain MIC): 0.72
Δarr Mab MIC [2]: 0.025 µM
MIC ([3]; broth, M. abscessus Bamboo, Table 16, read-out: MIC): 0.03 µM (≈ 0.0273 µg/mL)
MBC ([4]; broth, 5 days): 0.13 µM (≈ 0.118 µg/mL)
cMBC90/bMBC90 ([5]; 5-day assays): 5
MBC ([5]; caseum surrogate, 5 days, 90% CFU reduction vs drug-free control): 0.65 µM (≈ 0.592 µg/mL)

NCC[C@H](O)C(=O)N[C@@H]1C[C@H](N)[C@@H](O[C@H]2O[C@H](CN)[C@@H](O)[C@H](O)[C@H]2O)[C@H](O)[C@H]1O[C@H]1O[C@H](CO)[C@@H](O)[C@H](N)[C@H]1O [Amikacin]
MIC [3, 11]: 25 µM (≈ 14.6 µg/mL)
MBC [4, 12]: 40 µM (≈ 23.4 µg/mL)
cMBC90/bMBC90 ([5]; 5-day assays): 0.3
MBC [5, 13]: 12 µM (≈ 7.03 µg/mL)

COc1nc2ccc(Br)cc2cc1[C@@H](c1ccccc1)[C@@](O)(CCN(C)C)c1cccc2ccccc12 [Bedaquiline, bedaquiline]
MIC [3, 11]: 0.4 µM (≈ 0.222 µg/mL)
MBC ([4]; Mycobacteroides abscessus, 240 h, assay extended to 10 days): 2 µM (≈ 1.11 µg/mL)
cMBC90/bMBC90 ([5]; 10-day assays): 33.5
MBC ([5]; Mycobacteroides abscessus, 240 h, caseum surrogate, assay extended to 10 days): 67 µM (≈ 37.2 µg/mL)

CO[C@@]1(NC(=O)Cc2cccs2)C(=O)N2C(C(=O)O)=C(COC(N)=O)CS[C@@H]21 [Cefoxitin, cefoxitin]
MIC [3, 11]: 29 µM (≈ 12.4 µg/mL)
MBC [4, 12]: 45 µM (≈ 19.2 µg/mL)
cMBC90/bMBC90 ([5]; 5-day assays): 0.78
MBC [5, 13]: 35 µM (≈ 15 µg/mL)

CC(C)/N=c1\cc2n(-c3ccc(Cl)cc3)c3ccccc3nc-2cc1Nc1ccc(Cl)cc1 [Clofazimine, clofazimine]
MIC [3, 11]: 12.5 µM (≈ 5.92 µg/mL)
MBC [4, 12]: > 128 µM
MBC [5, 13]: > 128 µM

C[C@@H](O)[C@H]1C(=O)N2C(C(=O)O)=C(SCCN=CN)C[C@H]12 [Imipenem, imipenem]
MIC [3, 11]: 10 µM (≈ 2.99 µg/mL)
MBC [4, 12]: 18 µM (≈ 5.39 µg/mL)
cMBC90/bMBC90 ([5]; 5-day assays): 2.3
MBC [5, 13]: 42 µM (≈ 12.6 µg/mL)

CC(=O)NC[C@H]1CN(c2ccc(N3CCOCC3)c(F)c2)C(=O)O1 [Linezolid, linezolid]
MIC [3, 11]: 25 µM (≈ 8.43 µg/mL)
MBC [4, 12]: 32 µM (≈ 10.8 µg/mL)
cMBC90/bMBC90 ([5]; 5-day assays): 16
MBC [5, 13]: 512 µM (≈ 173 µg/mL)

COc1c(N2C[C@@H]3CCCN[C@@H]3C2)c(F)cc2c(=O)c(C(=O)O)cn(C3CC3)c12 [Moxifloxacin, moxifloxacin]
MIC [3, 11]: 6 µM (≈ 2.41 µg/mL)
MBC [4, 12]: 2 µM (≈ 0.803 µg/mL)
cMBC90/bMBC90 ([5]; 5-day assays): 4
MBC [5, 13]: 8 µM (≈ 3.21 µg/mL)

CN(C)c1cc(NC(=O)CNC(C)(C)C)c(O)c2c1C[C@H]1C[C@H]3[C@H](N(C)C)C(O)=C(C(N)=O)C(=O)[C@@]3(O)C(O)=C1C2=O [Tigecycline, tigecycline]
MIC ([3]; Mycobacteroides abscessus): 12.5 µM (≈ 7.32 µg/mL)
MBC [4, 12]: 8 µM (≈ 4.69 µg/mL)
cMBC90/bMBC90 ([5]; 5-day assays): 1
MBC [5, 13]: 8 µM (≈ 4.69 µg/mL)

CO[C@H]1/C=C/O[C@@]2(C)Oc3c(C)c(O)c4c(c3C2=O)C2=NC3(CCN(CC(C)C)CC3)NC2=C(NC(=O)/C(C)=C/C=C/[C@H](C)[C@H](O)[C@@H](C)[C@@H](O)[C@@H](C)[C@H](OC(=O)NC2CCN(Cc3ccccc3)CC2)[C@@H]1C)C4=O [UMN15]
MICWT [1]: 0.013 µM
MIC ([1]; Table 14, carbamate analogs, read-out: WT Mab MIC): 0.013 µM (≈ 0.0133 µg/mL)
MICΔorr [2]: 0.028 µM
ƒAUC/MIC ([6]; Table 18): 0.8
CL ([6]; mouse, in vivo): 6.40 mL/min/kg
F ([6]; mouse, in vivo): 35%
Vd ([6]; mouse, in vivo): 5.92 L/kg
AUCp.o. ([6]; mouse, in vivo): 5658 ng·h/mL
ƒu [7]: 0.2%
plasma unbound fraction ([7]; plasma): 0.19%
MIC ([8]; Table 22, read-out: MICMab): 0.013 µM (≈ 0.0133 µg/mL)
CYP3A4 gene fold-induction at 10 μM [9]: 1.2

CO[C@H]1/C=C/O[C@@]2(C)Oc3c(C)c(O)c4c(c3C2=O)C2=NC3(CCN(CC(C)C)CC3)NC2=C(NC(=O)/C(C)=C/C=C/[C@H](C)[C@H](O)[C@@H](C)[C@@H](O)[C@@H](C)[C@H](OC(=O)NC2CC(C)(C)NC(C)(C)C2)[C@@H]1C)C4=O [UMN32]
MIC ([1]; Mycobacteroides abscessus, ATCC19977, Table 14, carbamate analogs, read-out: WT Mab MIC): 0.04 µM (≈ 0.0395 µg/mL)
MICWT [1]: 0.04 µM
MICΔorr [2]: 0.09 µM
ƒu ([7]; 4 h, 10000 ng/mL): 6.7%
fraction unbound at 4 h, 10000 ng/mL ([7]; plasma): 0.067
MIC [8, 14]: 0.04 µM (≈ 0.0395 µg/mL)
CYP3A4 gene fold-induction at 10 μM ([9]; human, 10 μM): 0.6

CO[C@H]1/C=C/O[C@@]2(C)Oc3c(C)c(O)c4c(c3C2=O)C2=NC3(CCN(CC(C)C)CC3)NC2=C(NC(=O)/C(C)=C/C=C/[C@H](C)[C@H](O)[C@@H](C)[C@@H](O)[C@@H](C)[C@H](OC(=O)Nc2cnccn2)[C@@H]1C)C4=O [UMN120]
MIC ([1]; Table 15, heterocyclic aromatic carbamates, read-out: WT Mab MIC): 0.028 µM (≈ 0.0259 µg/mL)
F ([6]; mouse, in vivo): 73%
ƒAUC/MIC ([6]; mouse, in vivo): 88.8
AUCp.o. ([6]; mouse, in vivo): 55072 ng·h/mL
ƒu [7]: 4.2%
plasma unbound (ƒu, %) ([7]; plasma): 4.2%
MIC ([8]; Table 22, read-out: MICMab): 0.028 µM (≈ 0.0259 µg/mL)
MIC ([8]; against Mycobacterium abscessus, Table 19, read-out: MIC): 0.028 µM (≈ 0.0259 µg/mL)
CYP3A4 gene fold-induction at 10 μM [9]: 0.7

CO[C@H]1/C=C/O[C@@]2(C)Oc3c(C)c(O)c4c(O)c(c(/C=N/N5CCN(C)CC5)c(O)c4c3C2=O)NC(=O)/C(C)=C\C=C\[C@H](C)[C@H](O)[C@@H](C)[C@@H](O)[C@@H](C)[C@H](OC(C)=O)[C@@H]1C [rifampicin, reference compound]
MIC ([1]; Mycobacteroides abscessus, ATCC19977, read-out: WT Mab MIC): 5.3 µM (≈ 4.36 µg/mL)
Δarr Mab MIC [2]: 0.26 µM
MIC [10]: > 100 µM
MIC [8, 14]: 5.3 µM (≈ 4.36 µg/mL)
